The source of these data is the supplement of paper PMC4862054.

Experiment in all cases: normalised response (% of control), CellTiter-Glo; higher = more viable cells (100 = DMSO, 0 = benzethonium chloride kill control)
What all share (conditions): incubation time: 72 h

Experiment [1] relates to CAL-120. The essentials: (§1)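 After 72 h with compound in 384-well plates, breast cancer cell lines seeded as 20 µl suspension were read for CellTox Green fluorescence at 485/520 nm. CellTiter-Glo luminescence was then read after 10 min at room temperature. Compound was present at 5 concentrations in 10-fold steps over a 10,000-fold range set per compound, and plates were normalised to 0.1 % DMSO (100) and a positive kill control (0). Values are normalised signals, each at a single concentration.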

For experiment [2], the system named is HCC1599. Summed up: as §1
The test system of experiment [3] is HCC1937. Summed up:
as §1

Experiment [4] concerns Hs578T. The essentials: as §1
Experiment [5] concerns MCF-10A. Summed up:
as §1

Turning to `CC[C@@]1(O)C(=O)OCc2c1cc1n(c2=O)Cc2cc3c(CN(C)C)c(O)ccc3nc2-1` [Topotecan] (100 nM), the normalised response in experiment [1] was found to be 95.9%; in experiment [2] it was 65.5%; in experiment [3], 95.7%; in experiment [4], 101%; in experiment [5], 90.2%.
